Assays:
[1] = target: T1, human DP1 receptor (Homo sapiens, UniProt Q13258); test: DP1 radioligand binding assay using [3H]BWA868C; details: hDP1 binding
T1 construct: tissue Biological Specialty Corporation; host or cells: human platelets, membranes
T1 sequence (Q13258 1-359): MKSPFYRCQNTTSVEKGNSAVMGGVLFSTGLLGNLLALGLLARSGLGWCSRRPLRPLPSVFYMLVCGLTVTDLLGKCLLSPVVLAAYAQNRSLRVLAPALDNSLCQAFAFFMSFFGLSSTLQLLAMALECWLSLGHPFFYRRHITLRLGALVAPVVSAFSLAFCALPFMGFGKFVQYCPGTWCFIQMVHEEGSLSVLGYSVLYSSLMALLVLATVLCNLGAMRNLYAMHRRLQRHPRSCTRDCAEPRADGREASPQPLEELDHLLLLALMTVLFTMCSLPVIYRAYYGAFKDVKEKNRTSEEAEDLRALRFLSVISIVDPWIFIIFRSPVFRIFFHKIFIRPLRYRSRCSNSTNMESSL
Summary of the method: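 Human platelet membranes (20 μg protein/well) incubated 60 min at room temperature with 2 nM [3H]BWA868C in 50 mM Hepes, 10 mM MnCl2, 1 mM EDTA, ±0.2% human serum albumin, pH 7.4. Bound label measured after filtration; nonspecific binding defined with 10 μM BW A868C. IC50 from titration curves.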

[2] = target: T2, recombinant human CRTH2 receptor (Homo sapiens, UniProt Q9Y5Y4); test: GTPγS binding assay; assay type: biochemical; details: +HSA; read-out: hDP2 GTPγS μM (+HSA)
T2 construct: expressed in transfected cells
T2 sequence (Q9Y5Y4 1-395): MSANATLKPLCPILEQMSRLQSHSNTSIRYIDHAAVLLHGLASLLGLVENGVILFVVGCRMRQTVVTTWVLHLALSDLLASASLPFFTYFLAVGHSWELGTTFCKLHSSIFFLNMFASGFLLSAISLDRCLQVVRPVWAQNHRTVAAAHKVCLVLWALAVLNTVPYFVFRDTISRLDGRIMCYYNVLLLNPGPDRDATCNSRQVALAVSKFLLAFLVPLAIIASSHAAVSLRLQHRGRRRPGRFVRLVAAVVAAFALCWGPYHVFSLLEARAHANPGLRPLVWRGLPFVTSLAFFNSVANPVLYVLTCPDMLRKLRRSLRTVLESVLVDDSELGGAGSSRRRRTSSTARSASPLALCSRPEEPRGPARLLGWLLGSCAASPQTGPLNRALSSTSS
Method: The ability of a compound to inhibit binding of GTP to DP2 is assessed via a membrane GTPγS assay. CHO cells stably expressing the recombinant human CRTH2 receptor are resuspended in 10 mM Hepes, 7.4 containing 1 mM DTT, lysed and centrifuged at 75,000×g to pellet the membranes. The membranes are resuspended in 10 mM Hepes, 7.4 containing 1 mM DTT and 10% glycerol. Membranes (˜12.5 μg per well) are incubated in 96-well plates with 0.05 nM [^35S]-GTPγS, 80 nM PGD2, 5 μM GDP, and test compound in Assay Buffer (50 mM Hepes, pH 7.4, 100 mM NaCl, 5 mM MgCl2 and 0.2% human serum albumin) for 60 minutes at 30° C. The reactions are terminated by rapid filtration through Whatman GF/B glass fibre filter plates. The filter plates are washed 3 times with 1 ml cold Assay Buffer and dried. Scintillant is then added to the plates and the radioactivity retained on the filters is determined on a Packard TopCount (Perkin Elmer). Specific binding is determined as total radioactive binding minus non-specific binding in the absence of the ligand (80 nM PGD2). IC50s were determined using Graphpad prism analysis of drug titration curves.

[3] = target: T3, human DP2 receptor (Homo sapiens, UniProt Q9Y5Y4); test: DP2/CRTH2 radioligand binding assay using [3H]PGD2; details: hDP2 (CRTH2) binding assay
T3 construct: expressed in transfected cells
T3 sequence (Q9Y5Y4 1-395): T2 sequence (Q9Y5Y4 1-395)
Summary of the method: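 HEK293 membranes with stable recombinant human DP2, incubated with 1 nM [3H]PGD2 and compound 60 min at room temperature in pH 7.4 HEPES/MnCl2/EDTA buffer, with or without 0.2% human serum albumin.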

| Compound | IC50 [1] [nM] | IC50 [2] [µM] | IC50 [3] [nM] |
| --- | --- | --- | --- |
| C[C@@H]1[C@H](c2ccccc2)OC(=O)N1Cc1cc(C(F)(F)F)ccc1Oc1cc(CC(=O)O)ccc1-c1ccccc1 [Compound 1-80, {2-[2-((4R,5S)-4-Methyl-2-oxo-5-phenyl-oxazolidin-3-ylmethyl)-4-trifluoromethyl-phenoxy]-biphenyl-4-yl}-acetic acid] | > 1000 | < 0.3 | < 300 |
| O=C(O)Cc1cccc(Oc2ccc(C(F)(F)F)cc2CN2CCOC2=O)c1 [Compound 1-5, {3-[2-(2-Oxo-oxazolidin-3-ylmethyl)-4-trifluoromethyl-phenoxy]-phenyl}-acetic acid] | > 1000 | < 0.3 | < 300 |
| O=C(O)Cc1cccc(Oc2ccc(C(F)(F)F)cc2CN2C(=O)OC3c4ccccc4CC32)c1 (stereo not drawn) [Compound 2-7, {3-[2-(2-Oxo-4,8b-dihydro-3aH-indeno[2,1-d]oxazol-3-ylmethyl)-4-trifluoromethyl-phenoxy]-phenyl}-acetic acid] | > 1000 | < 0.3 | < 300 |
| C[C@H]1[C@@H](c2ccc(Cl)cc2)OC(=O)N1Cc1cc(Br)ccc1Oc1cccc(CC(=O)O)c1 [Compound 1-16, (3-{4-Bromo-2-[(4S,5R)-5-(4-chloro-phenyl)-4-methyl-2-oxo-oxazolidin-3-ylmethyl]-phenoxy}-phenyl)-acetic acid] | < 300 | > 1 | < 300 |
| COc1ccc(-c2ccc(Oc3cc(CC(=O)O)ccc3OC)c(CN3C(=O)O[C@H](c4ccccc4)[C@@H]3C)c2)cc1 [Compound 1-39, {4-Methoxy-3-[4′-methoxy-3-((4S,5R)-4-methyl-2-oxo-5-phenyl-oxazolidin-3-ylmethyl)-biphenyl-4-yloxy]-phenyl}-acetic acid] | > 1000 | > 1 | < 300 |
| O=C(O)CCn1c2c(c3ccccc31)C[C@H](NS(=O)(=O)c1ccc(F)cc1)CC2 [Ramatroban, reference compound] | > 1000 | 0.3 to 1 | 300 to 1000 |
| C[C@H]1[C@@H](c2ccccc2)OC(=O)N1Cc1cc(Br)ccc1Oc1cc(Cl)cc(CC(=O)O)c1 [Compound 1-27, {3-[4-Bromo-2-((4S,5R)-4-methyl-2-oxo-5-phenyl-oxazolidin-3-ylmethyl)-phenoxy]-5-chloro-phenyl}-acetic acid] | < 300 | < 0.3 | < 300 |
| O=C(O)Cc1cccc(Oc2ccc(C(F)(F)F)cc2CN2C(=O)O[C@@H]3Cc4ccccc4[C@@H]32)c1 [Compound 2-3, {3-[2-((3aS,8aR)-2-Oxo-8,8a-dihydro-3aH-indeno[1,2-d]oxazol-3-ylmethyl)-4-trifluoromethyl-phenoxy]-phenyl}-acetic acid] | > 1000 | 0.3 to 1 | < 300 |
| COc1ccc(CC(=O)O)cc1Oc1ccc(-c2cccnc2)cc1CN1C(=O)O[C@H](c2ccccc2)[C@@H]1C [Compound 1-40, {4-Methoxy-3-[2-((4S,5R)-4-methyl-2-oxo-5-phenyl-oxazolidin-3-ylmethyl)-4-pyridin-3-yl-phenoxy]-phenyl}-acetic acid] | > 1000 | < 0.3 | < 300 |
| C[C@@H]1[C@H](c2ccccc2)OC(=O)N1Cc1cc(Br)ccc1Oc1ccc(Cl)c(CC(=O)O)c1 [Compound 1-53, {5-[4-Bromo-2-((4R,5S)-4-methyl-2-oxo-5-phenyl-oxazolidin-3-ylmethyl)-phenoxy]-2-chloro-phenyl}-acetic acid] | > 1000 | > 1 | < 300 |
| COc1ccc(CC(=O)O)cc1Oc1cc(Br)ccc1CN1C(=O)O[C@@H](c2ccccc2)[C@H]1C [Compound 1-82, {3-[5-Bromo-2-((4R,5S)-4-Methyl-2-oxo-5-phenyl-oxazolidin-3-ylmethyl)-phenoxy]-4-methoxy-phenyl}-acetic acid] | > 1000 | < 0.3 | < 300 |
| CCOc1ccc(CC(=O)O)cc1Oc1ccc(C(F)(F)F)cc1CN1C(=O)O[C@@H](c2ccccc2)[C@H]1C [Compound 1-83, {4-Ethoxy-3-[2-((4R,5S)-4-methyl-2-oxo-5-phenyl-oxazolidin-3-ylmethyl)-4-trifluoromethyl-phenoxy]-phenyl}-acetic acid] | > 1000 | < 0.3 | < 300 |
| O=C(O)Cc1cccc(Oc2ccc(Br)cc2CN2CC(c3ccc(Cl)cc3)CC2=O)c1 (stereo not drawn) [Compound 3-2, (3-{4-Bromo-2-[4-(4-chloro-phenyl)-2-oxo-pyrrolidin-1-ylmethyl]-phenoxy}-phenyl)-acetic acid] | 300 to 1000 | > 1 | < 300 |
| COc1ccc(CC(=O)O)cc1Oc1ccc(-c2cnn(C)c2)cc1CN1C(=O)O[C@@H](c2ccccc2)[C@H]1C [Compound 1-66, {4-Methoxy-3-[2-((4R,5S)-4-methyl-2-oxo-5-phenyl-oxazolidin-3-ylmethyl)-4-(1-methyl-1H-pyrazol-4-yl)-phenoxy]-phenyl}-acetic acid] | > 1000 | < 0.3 | < 300 |
| C[C@H]1[C@@H](c2ccccc2)OC(=O)N1Cc1cc(Br)ccc1Oc1cc(CC(=O)O)ccc1Cl [Compound 1-29, {3-[4-Bromo-2-((4S,5R)-4-methyl-2-oxo-5-phenyl-oxazolidin-3-ylmethyl)-phenoxy]-4-chloro-phenyl}-acetic acid] | > 1000 | > 1 | < 300 |
| COc1ccc(CC(=O)O)cc1Oc1ccc(Br)cc1CN1C(=O)O[C@@H](c2ccccc2)[C@H]1C [Compound 1-60, {3-[4-Bromo-2-((4R,5S)-4-methyl-2-oxo-5-phenyl-oxazolidin-3-ylmethyl)-phenoxy]-4-methoxy-phenyl}-acetic acid] | > 1000 | < 0.3 | < 300 |
| O=C(O)Cc1cccc(Oc2ccc(-c3ccccc3)cc2CN2CCOC2=O)c1 [Compound 1-7, {3-[3-(2-Oxo-oxazolidin-3-ylmethyl)-biphenyl-4-yloxy]-phenyl}-acetic acid] | > 1000 | 0.3 to 1 | < 300 |
| COc1ccc(CC(=O)O)cc1Oc1ccc(NC(=O)c2ccc(Cl)cc2)cc1CN1CCOC1=O [Compound 1-91, {3-[4-(4-Chloro-benzoylamino)-2-(2-oxo-oxazolidin-3-ylmethyl)-phenoxy]-4-methoxy-phenyl}-acetic acid] | > 1000 | > 1 | < 300 |
| C[C@H]1[C@@H](c2cc(F)cc(F)c2)OC(=O)N1Cc1cc(Br)ccc1Oc1cccc(CC(=O)O)c1 [Compound 1-17, (3-{4-Bromo-2-[(4S,5R)-5-(3,5-difluoro-phenyl)-4-methyl-2-oxo-oxazolidin-3-ylmethyl]-phenoxy}-phenyl)-acetic acid] | < 300 | < 0.3 | < 300 |
| COc1ccc(CC(=O)O)cc1Oc1ccc(Br)cc1CN1C(=O)O[C@@H](c2cc(C(F)(F)F)cc(C(F)(F)F)c2)[C@H]1C [Compound 1-64, (3-{2-[(4R,5S)-5-(3,5-Bis-trifluoromethyl-phenyl)-4-methyl-2-oxo-oxazolidin-3-ylmethyl]-4-bromo-phenoxy}-4-methoxy-phenyl)-acetic acid] | > 1000 | > 1 | 300 to 1000 |
| O=C(O)Cc1cc(Oc2ccc(C(F)(F)F)cc2CN2CCOC2=O)ccc1-c1ccccc1 [Compound 1-13, {4-[2-(2-Oxo-oxazolidin-3-ylmethyl)-4-trifluoromethyl-phenoxy]-biphenyl-2-yl}-acetic acid] | < 300 | 0.3 to 1 | < 300 |

From patent US8242145B2, “Cyclic diaryl ether compounds as antagonists of prostaglandin D2 receptors” (Panmira Pharmaceuticals, LLC, priority 2008, dated 2012)
